IC50 data for 1 molecule are collected here from ChEMBL document CHEMBL5727040, “Factor XIa inhibitors” (2018).

One assay has as its target Plasma kallikrein (Homo sapiens, UniProt P03952). In words: Kallikrein Assay: The effectiveness of a compound of the present invention as an inhibitor of Kallikrein can be determined using a relevant purified serine protease, and an appropriate synthetic substrate. The rate of hydrolysis of the chromogenic or fluorogenic substrate by the relevant serine protease was measured both in the absence and presence of compounds of the present invention. Assays were conducted at room temperature or at 37° C. […] A decrease in the rate of fluorescence change in the presence of inhibitor is indicative of enzyme inhibition. Such methods are known to one skilled in the art. […] Times required to achieve equilibration between enzyme and inhibitor were determined in control experiments. The reactions were performed under linear progress curve conditions and fluorescence increase measured at 405 Ex/510 Em nm. […] IC50 was determined by inflection point from a four parameter logistic curve fit. Ki was calculated using the Cheng Prusoff equation, Ki=IC50/(1+([S]/Km)).

For another assay, the target named is Coagulation factor XI (Homo sapiens, UniProt P03951). In words: Inhibition Assay: Factor XIa determinations were made in 50 mM HEPES buffer at pH 7.4 containing 150 mM NaCl, 5 mM CaCl2, and 0.1% PEG 8000 (polyethylene glycol; JT Baker or Fisher Scientific). Determinations were made using purified human Factor XIa at a final concentration of 40 pM (Sekisui Diagnostics) and the synthetic substrate, Z-Gly-Pro-Arg-AFC, TFA salt (Sigma #C0980) at a concentration of 100 μM.

Structures are written as SMILES.

Chain of Coagulation factor XI (P03951 19-387 limits assumed): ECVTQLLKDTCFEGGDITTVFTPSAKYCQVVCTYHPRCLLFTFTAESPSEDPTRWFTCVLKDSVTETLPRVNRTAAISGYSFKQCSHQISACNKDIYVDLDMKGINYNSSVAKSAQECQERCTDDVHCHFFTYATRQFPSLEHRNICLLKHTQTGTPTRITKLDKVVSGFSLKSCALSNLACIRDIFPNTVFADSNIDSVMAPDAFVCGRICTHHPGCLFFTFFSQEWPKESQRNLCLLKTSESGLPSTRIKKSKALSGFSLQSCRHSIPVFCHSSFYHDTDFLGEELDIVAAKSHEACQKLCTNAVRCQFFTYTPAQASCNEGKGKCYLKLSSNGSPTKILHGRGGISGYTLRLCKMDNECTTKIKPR
Chain of Coagulation factor XI (P03951 388-625 limits assumed): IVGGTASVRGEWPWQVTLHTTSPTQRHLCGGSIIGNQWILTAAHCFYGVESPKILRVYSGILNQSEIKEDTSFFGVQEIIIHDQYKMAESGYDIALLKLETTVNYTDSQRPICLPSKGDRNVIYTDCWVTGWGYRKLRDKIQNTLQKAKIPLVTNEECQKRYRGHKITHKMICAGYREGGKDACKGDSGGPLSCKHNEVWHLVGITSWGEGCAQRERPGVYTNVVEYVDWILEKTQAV
Chain of Plasma kallikrein (P03952 20-390 limits assumed): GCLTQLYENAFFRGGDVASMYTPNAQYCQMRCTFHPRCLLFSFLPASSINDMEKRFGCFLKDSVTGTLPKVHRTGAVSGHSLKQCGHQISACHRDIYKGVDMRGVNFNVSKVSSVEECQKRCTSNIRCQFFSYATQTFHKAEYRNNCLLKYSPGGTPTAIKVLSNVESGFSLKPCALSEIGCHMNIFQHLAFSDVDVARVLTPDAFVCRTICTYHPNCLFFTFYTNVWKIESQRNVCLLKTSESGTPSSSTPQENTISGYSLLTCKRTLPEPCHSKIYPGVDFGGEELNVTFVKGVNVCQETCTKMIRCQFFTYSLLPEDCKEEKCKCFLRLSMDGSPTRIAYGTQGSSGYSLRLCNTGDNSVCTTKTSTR
Chain of Plasma kallikrein (P03952 391-638 limits assumed): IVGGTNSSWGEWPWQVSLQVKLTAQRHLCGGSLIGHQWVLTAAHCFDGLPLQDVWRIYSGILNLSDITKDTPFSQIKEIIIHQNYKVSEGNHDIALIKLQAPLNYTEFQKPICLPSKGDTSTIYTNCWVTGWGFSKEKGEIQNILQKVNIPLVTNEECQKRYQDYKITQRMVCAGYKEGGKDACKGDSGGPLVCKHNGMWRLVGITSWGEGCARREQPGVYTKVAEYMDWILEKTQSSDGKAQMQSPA

For `O=C(NC1CC=CC1)N1CCC(c2cccc([C@H](Cc3ccccc3)c3ccc(-c4cc(Cl)ccc4-n4cnnn4)c[n+]3[O-])c2)CC1`, the values for the IC50 on Plasma kallikrein and at Coagulation factor XI were 696 nM and 18.5 nM, respectively.
